20 molecules from patent publication US12565504B2, “Spirocyclic O-glycoprotein-2-acetamido-2-deoxy-3-d-glucopyranosidase inhibitors” (BIOGEN MA INC., priority 2019, dated 2026) can be followed below.

Series [1] addresses Recombinant full length human OGA enzyme (Homo sapiens (Human), UniProt O60502). The series is described as follows: OGA Enzyme Inhibition Biochemical Assay. The settings on record: 1 nM OGA, 100 μM 4-MUGlcNAc, 90 minutes, pH 6.4. The method, boiled down:
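Full-length recombinant human OGA with fluorogenic 4-MUGlcNAc in McIlvaine buffer pH 6.4, 0.01% BSA; 90 min at room temperature, glycine pH 10 quench, fluorescence Ex 355/Em 460 nm. 10-point, 4-fold dilution from 20 μM; 4-parameter variable-slope fit.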

The target of another series is OGA (S400 O-GLCNAC) (Homo sapiens (Human), UniProt O60502). The series is described as follows: Cellular OGA-Tau MSD Assay. The class given is cell-based. To be noted: HEK-293T cells transfected with OGT and Tau-V5; Tau-S400-GlcNAc MSD readout. The method, boiled down:
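HEK-293T cells transiently co-expressing OGT and Tau-V5 were treated overnight at 37° C with compounds (top 1 uM, 3-fold, 10 points). Lysate Tau was captured on V5 antibody, and S400-GlcNAc was detected by MSD electrochemiluminescence. IC50 was derived from a 4-parameter fit of normalized % activity.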

The test system of another series is P-gp (MDR1). Kind of series: MDR1-MDCK Efflux Ratio Assay. The class given is in vitro ADME. To be noted: dog, MDR1-MDCK cells, pH 7.4, read-out: MDR1-MDCK Efflux Ratio (B-A/A-B). On the procedure: MDR1-MDCK cell monolayers were grown to confluence on microporous polyester membranes in 96-well Corning insert plates. The permeability assay buffer was Hanks' Balanced Salt Solution containing 10 mM HEPES at pH of 7.4. Loperamide (1 μM) was used as a positive control P-gp substrate. Propranolol and Bestatin (1 μM) were used as high and low permeability comparators, respectively.
Test compounds or positive control P-gp substrate/permeability comprators were added to respective apical and basolateral chambers for bidirectional assessment of permeability. Receiver buffer (transport buffer supplemented with 1% bovine serum albumin) was added to respective receiver chambers. MDR1-MDCK cells were incubated with test compounds at 37° C. with 5% CO2 for 2 hr. Samples were collected from the donor chamber at both 0 and 120 minutes, and from the receiver chamber at 120 minutes. Test and control compound concentrations were determined using LC-MS/MS analysis. Each determination was performed in triplicate.

Series [2] in a line: Rat Liver Microsome Stability Assay. The settings on record: rat liver microsomes 0.5 mg/mL, compound 1 μM; Qh 55 mL/minute/kg.
Method: Aliquots (40 uL) at 0, 5, 10, 15, 25 and 40 minutes post NADPH addition (or compound addition for reactions in absence of NADPH) were transferred into individual 96-well plate wells containing 40 ng/ml of 8-cyclopently-1,3-dipropylxanthine (CPDPX, internal standard) in 160 uL acetonitrile:methanol (1:1 v/v).
The LC/MS/MS system consisted of an ultra high throughput RapidFire® 300 system (Agilent Technologies, Santa Clara, CA) coupled to a Triple Quad 5500 mass spectrometer (ABSciex, Foster City, CA). Sample load and wash were performed on a RapidFire® C4 cartridge using 0.1% formic acid in water as mobile phase A and sample elution using 0.1% formic acid in acetonitrile:methanol (1:1 v/v) as mobile phase B.
CLint, app (apparent intrinsic clearance) was calculated using the following equation for microsome stability.
[formula] • where “a” represents 45 grams of liver/kg of body weight for rat. • CLint,app (apparent intrinsic clearance) was calculated using the following equation for hepatocyte stability: • CLhep (hepatic clearance) was calculated using the following equation for microsomes
[formula] • using 55 mL/minute/kg as Qh (hepatic blood flow) for rat.

Sequence of Recombinant full length human OGA enzyme (O60502 whole entry): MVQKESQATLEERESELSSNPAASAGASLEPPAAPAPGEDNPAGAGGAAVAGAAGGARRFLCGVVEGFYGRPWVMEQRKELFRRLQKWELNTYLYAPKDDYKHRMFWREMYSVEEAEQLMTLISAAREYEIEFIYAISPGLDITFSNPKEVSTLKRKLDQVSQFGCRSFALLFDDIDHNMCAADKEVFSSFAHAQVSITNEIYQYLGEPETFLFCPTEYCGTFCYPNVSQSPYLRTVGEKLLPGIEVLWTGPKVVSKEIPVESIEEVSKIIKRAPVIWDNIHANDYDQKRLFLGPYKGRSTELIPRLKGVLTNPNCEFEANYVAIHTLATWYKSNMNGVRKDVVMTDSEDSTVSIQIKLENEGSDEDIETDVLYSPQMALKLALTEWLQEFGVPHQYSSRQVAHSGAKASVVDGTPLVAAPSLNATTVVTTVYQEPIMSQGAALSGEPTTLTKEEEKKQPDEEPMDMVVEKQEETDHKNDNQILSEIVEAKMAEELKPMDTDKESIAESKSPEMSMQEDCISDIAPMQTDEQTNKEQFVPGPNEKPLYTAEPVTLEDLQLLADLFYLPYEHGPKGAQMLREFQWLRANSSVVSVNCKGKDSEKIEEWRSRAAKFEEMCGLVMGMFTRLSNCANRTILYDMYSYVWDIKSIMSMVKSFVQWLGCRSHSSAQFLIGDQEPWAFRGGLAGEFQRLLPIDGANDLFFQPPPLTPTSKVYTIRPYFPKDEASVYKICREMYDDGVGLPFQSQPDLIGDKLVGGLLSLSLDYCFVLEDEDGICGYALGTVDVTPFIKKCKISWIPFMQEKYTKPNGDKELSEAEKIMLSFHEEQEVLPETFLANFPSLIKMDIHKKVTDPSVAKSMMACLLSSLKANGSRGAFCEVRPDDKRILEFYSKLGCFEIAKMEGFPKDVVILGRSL
Sequence of OGA (S400 O-GLCNAC) (O60502 whole entry): as above

For the molecule `CC(=O)Nc1ncc(CN2C[C@@]3(Cc4cc(N5C[C@H](C)O[C@@H](C)C5)ncc4O3)C[C@@H]2C)s1` [Example 42, N-(5-(((2R,5′S)-5-((2S,6S)-2,6-Dimethylmorpholino)-5′-methyl-3H-spiro[furo[2,3-c]pyridine-2,3′-pyrrolidin]-1′-yl)methyl)thiazol-2-yl)acetamide], the 50% inhibitory concentration (IC50) in series [1] was 1.9 nM; against OGA (S400 O-GLCNAC), 14 nM. In the series on P-gp (MDR1), the efflux ratio at 2 hr worked out at 25. Further, the “RLM % Qh (%)” value in series [2] was 66%.
Take `COc1nccc2c1COC21CCCN(Cc2cnc(NC(C)=O)s2)C1` (centres unmarked) [Example 82, N-(5-((4-Methoxy-3H-spiro[furo[3,4-c]pyridine-1,3′-piperidin]-1′-yl)methyl)thiazol-2-yl)acetamide]: the 50% inhibitory concentration (IC50) worked out at 1.6 nM in series [1] and 126 nM against OGA (S400 O-GLCNAC). The efflux ratio at 2 hr in the series on P-gp (MDR1) is 4.4. Also, the “RLM % Qh (%)” value in series [2] is given as 78%.
As to `CC(=O)Nc1ncc(CN2CCC3(Cc4ccccc4O3)C2)s1` (centres unmarked) [Example 3, N-(5-((3H-Spiro[benzofuran-2,3′-pyrrolidin]-1′-yl)methyl)thiazol-2-yl)acetamide], the IC50 worked out at 330 nM in series [1] and 1000 nM against OGA (S400 O-GLCNAC). The efflux ratio at 2 hr in the series with P-gp (MDR1) came out at 1.7. The “RLM % Qh (%)” value in series [2] was 81%.
Turning to `COc1nccc2c1COC21CCCN(Cc2sc(NC(C)=O)nc2F)C1` (centres unmarked) [Example 81, N-(4-Fluoro-5-((4-methoxy-3H-spiro[furo[3,4-c]pyridine-1,3′-piperidin]-1′-yl)methyl)thiazol-2-yl)acetamide], the IC50 in series [1] came out at 1.1 nM; against OGA (S400 O-GLCNAC) it was 15.1 nM. Besides, the efflux ratio at 2 hr with P-gp (MDR1) was 2.5. In series [2], the “RLM % Qh (%)” value came to 78%.
With `CC(=O)Nc1ncc(CN2CCCC3(C2)OCc2cnccc23)s1` (centres unmarked) [Example 68, N-(5-((3H-Spiro[furo[3,4-c]pyridine-1,3′-piperidin]-1′-yl)methyl)thiazol-2-yl)acetamide], the values for the 50% inhibitory concentration (IC50) (in series [1]; against OGA (S400 O-GLCNAC)) were 6 nM and 18 nM, respectively. Moreover, the efflux ratio at 2 hr in the series on P-gp (MDR1) amounted to 10.7. For the same molecule, the “RLM % Qh (%)” value in series [2] is 84%.
For `COc1cc2c(cn1)[C@@]1(C[C@H](C)N(Cc3cnc(NC(C)=O)s3)C1)OC2` (single isomer, unassigned) [Example 76-b], the 50% inhibitory concentration (IC50) in series [1] came to 160 nM; against OGA (S400 O-GLCNAC), 38 nM. Also, in the series with P-gp (MDR1), the efflux ratio at 2 hr is 8.9. The “RLM % Qh (%)” value in series [2] turned out to be 89%.
Regarding `CC(=O)Nc1ncc(CN2C[C@@]3(Cc4cc(N5CCC5)ncc4O3)C[C@@H]2C)s1` [Example 35, N-(5-(((2R,5′S)-5-(Azetidin-1-yl)-5′-methyl-3H-spiro[furo[2,3-c]pyridine-2,3′-pyrrolidin]-1′-yl)methyl)thiazol-2-yl)acetamide], the half-maximal inhibitory concentration (IC50) in series [1] was < 1 nM; at OGA (S400 O-GLCNAC) it was 4 nM. In the series on P-gp (MDR1), the efflux ratio at 2 hr was determined as 39.5. Also, in series [2], the “RLM % Qh (%)” value came out at 50%.
With `CC(=O)Nc1ncc(CN2CCCC3(C2)OCc2ccncc23)s1` (centres unmarked) [Example 74, N-(5-((1H-Spiro[furo[3,4-c]pyridine-3,3′-piperidin]-1′-yl)methyl)thiazol-2-yl)acetamide], the IC50 in series [1] was 13 nM; at OGA (S400 O-GLCNAC), 22.6 nM. Also, the efflux ratio at 2 hr in the series with P-gp (MDR1) amounted to 36.5. Besides, the “RLM % Qh (%)” value in series [2] came out at 75%.
Regarding `COCCN(C)c1cc2c(cn1)O[C@]1(C2)C[C@H](C)N(Cc2sc(NC(C)=O)nc2F)C1` [Example 33, N-(4-Fluoro-5-(((2R,5′S)-5-((2-methoxyethyl)(methyl)amino)-5′-methyl-3H-spiro[furo[2,3-c]pyridine-2,3′-pyrrolidin]-1′-yl)methyl)thiazol-2-yl)acetamide], the IC50 in series [1] was < 1 nM; at OGA (S400 O-GLCNAC), 2 nM. In the series on P-gp (MDR1), the efflux ratio at 2 hr was determined as 22. Further, in series [2], the “RLM % Qh (%)” value stood at 82%.
The like results for `CC(=O)Nc1nc(F)c(CN2C[C@@]3(Cc4cc(=O)[nH]cc4O3)C[C@@H]2C)s1` [Example 49, N-(4-Fluoro-5-(((2R,5′S)-5′-methyl-5-oxo-5,6-dihydro-3H-spiro[furo[2,3-c]pyridine-2,3′-pyrrolidin]-1′-yl)methyl)thiazol-2-yl)acetamide] were, in that order, 1 nM, 73 nM, 2.5 and 16%.
In the case of `CC(=O)Nc1nc(F)c(CN2C[C@@]3(Cc4ncccc4O3)C[C@@H]2C)s1` (single isomer, unassigned) [Example 19-a], the values for the IC50 (in series [1]; against OGA (S400 O-GLCNAC)) were 1 nM and 5 nM, respectively. For the same molecule, the efflux ratio at 2 hr in the series with P-gp (MDR1) is 14. Moreover, the “RLM % Qh (%)” value in series [2] is reported as 62%.
Turning to `COc1nccc2c1COC21C[C@H](C)N(Cc2cnc(NC(C)=O)s2)C1` (stereo partly drawn) [Example 78, N-(5-(((5′S)-4-Methoxy-5′-methyl-3H-spiro[furo[3,4-c]pyridine-1,3′-pyrrolidin]-1′-yl)methyl)thiazol-2-yl)acetamide], the IC50 in series [1] was 65 nM; against OGA (S400 O-GLCNAC) it was 9 nM. For the same molecule, in the series on P-gp (MDR1), the efflux ratio at 2 hr was 7.9. For the same molecule, in series [2], the “RLM % Qh (%)” value came out at 93%.
Regarding `CC(=O)Nc1ncc(CN2C[C@@]3(Cc4cc(N5C[C@@H](C)O[C@@H](C)C5)ncc4O3)C[C@@H]2C)s1` [Example 38, N-(5-(((2R,5′S)-5-((2R,6S)-2,6-Dimethylmorpholino)-5′-methyl-3H-spiro[furo[2,3-c]pyridine-2,3′-pyrrolidin]-1′-yl)methyl)thiazol-2-yl)acetamide], the IC50 amounted to 1.2 nM in series [1] and 9.9 nM at OGA (S400 O-GLCNAC). Besides, in the series with P-gp (MDR1), the efflux ratio at 2 hr was determined as 29.5. In addition, the “RLM % Qh (%)” value in series [2] is on record as 42%.
`CNc1cc2c(cn1)O[C@]1(C2)C[C@H](C)N(Cc2sc(NC(C)=O)nc2F)C1` [Example 29, N-(4-Fluoro-5-(((2R,5′S)-5′-methyl-5-(methylamino)-3H-spiro[furo[2,3-c]pyridine-2,3′-pyrrolidin]-1′-yl)methyl)thiazol-2-yl)acetamide]: the IC50 in series [1] was < 1 nM; against OGA (S400 O-GLCNAC), 3 nM. Moreover, in the series with P-gp (MDR1), the efflux ratio at 2 hr stood at 17.7. In series [2], the “RLM % Qh (%)” value is 55%.
For the molecule `CC(=O)Nc1ncc(CN2C[C@@]3(Cc4cc(C(F)(F)F)ncc4O3)C[C@@H]2C)s1` [Example 22, N-(5-(((2R,5′S)-5′-Methyl-5-(trifluoromethyl)-3H-spiro[furo[2,3-c]pyridine-2,3′-pyrrolidin]-1′-yl)methyl)thiazol-2-yl)acetamide], the half-maximal inhibitory concentration (IC50) stood at 17 nM in series [1] and 25 nM on OGA (S400 O-GLCNAC). Also, in the series with P-gp (MDR1), the efflux ratio at 2 hr came to 11. For the same molecule, the “RLM % Qh (%)” value in series [2] is 39%.
`CC(=O)Nc1nc(F)c(CN2C[C@@]3(Cc4cc(C5CC5)ncc4O3)C[C@@H]2C)s1` [Example 24, N-(5-(((2R,5′S)-5-Cyclopropyl-5′-methyl-3H-spiro[furo[2,3-c]pyridine-2,3′-pyrrolidin]-1′-yl)methyl)-4-fluorothiazol-2-yl)acetamide]: the figures for the concentration for half-maximal inhibition (IC50) (in series [1]; at OGA (S400 O-GLCNAC)) were 1 nM and 12 nM, respectively. Besides, the efflux ratio at 2 hr in the series with P-gp (MDR1) is 6.5. In addition, in series [2], the “RLM % Qh (%)” value was determined as 75%.
The like results for `COc1cccc2c1OC1(CCN(Cc3sc(NC(C)=O)nc3F)C1)C2` (centres unmarked) [Example 4, N-(4-Fluoro-5-((7-methoxy-3H-spiro[benzofuran-2,3′-pyrrolidin]-1′-yl)methyl)thiazol-2-yl)acetamide] were, in that order, 360 nM, > 1000 nM, 3.1 and 78%.
For `CC(=O)Nc1ncc(CN2CC3(C[C@@H]2C)OCc2ccccc23)s1` (stereo partly drawn) [Example 59, N-(5-(((5′S)-5′-Methyl-3H-spiro[isobenzofuran-1,3′-pyrrolidin]-1′-yl)methyl)thiazol-2-yl)acetamide], the IC50 in series [1] was 9 nM; against OGA (S400 O-GLCNAC), 16 nM. The efflux ratio at 2 hr in the series on P-gp (MDR1) came to 3.5. Also, the “RLM % Qh (%)” value in series [2] was 94%.
Consider `CC(=O)Nc1nc(F)c(CN2C[C@@]3(Cc4cc(=O)n(C)cc4O3)C[C@@H]2C)s1` [Example 48, N-(5-(((2R,5′S)-5′,6-Dimethyl-5-oxo-5,6-dihydro-3H-spiro[furo[2,3-c]pyridine-2,3′-pyrrolidin]-1′-yl)methyl)-4-fluorothiazol-2-yl)acetamide], for which the IC50 in series [1] came to 1.4 nM; against OGA (S400 O-GLCNAC) it was 34 nM. Besides, the efflux ratio at 2 hr in the series with P-gp (MDR1) was determined as 12. For the same molecule, the “RLM % Qh (%)” value in series [2] amounted to 16%.
The like results for `CC(=O)Nc1nc(F)c(CN2C[C@@]3(Cc4cc(Cl)ncc4O3)C[C@@H]2C)s1` [Example 10, N-(5-(((2R,5′S)-5-Chloro-5′-methyl-3H-spiro[furo[2,3-c]pyridine-2,3′-pyrrolidin]-1′-yl)methyl)-4-fluorothiazol-2-yl)acetamide] were, in that order, 1 nM, 8 nM, 5.2 and 75%.
